Data on one compound can be found in patent EP0414755B1, “INTERACTION SYSTEM COMPRISING A SURFACTANT-STABILIZED DISPERSE AQUEOUS PHASE CONTAINING AN ANTIBODY OR ANTIBODY FRAGMENT” (IGEN, INC., priority 1988, dated 1989).

Test [1] has as its system 48-G7 antibody (monoclonal IgG made against a p-nitrophenylphosphonate hapten). Put plainly: 48-G7 antibody-catalyzed hydrolysis of p-nitrophenylcarbonate in aqueous tris buffer, inhibition by transition state analog. The class given is biochemical. Particulars: 24 µM inhibitor, 90 µg/ml 48-G7, 10 mM tris buffer pH 8.5. The protocol: A solution of the 48-G7 antibody was purified from ascites fluid by Protein A chromatography. Following dialysis of the IgG fractions which were obtained into 10 mM tris buffer, 4.0 ml of a 3.0 mg/ml solution of this protein was lyophilyzed to dryness. The protein powder was then resuspended in 1.5 ml of 10 mM tris buffer (pH 8.5). When 10 µl of this antibody solution was added to one milliliter of buffer, a protein concentration of 0.090 mg/ml resulted (as determined from 280 nm and 260 nm absorbances). Thus, the stock antibody solution was 9.0 mg/ml.
The rate of antibody catalyzed hydrolysis of p-nitrophenylcarbonate was determined by adding 15 µl of a 50 mM p-nitrophenylcarbonate (p-NPC) solution dissolved in tetrahydrofuran to 3.0 ml of 10 mM tris buffer (pH 8.5). After this solution was mixed to homogeneity, 1.0 ml was transferred into a reference cuvette and 1.0 ml was transferred into a sample cuvette. An assay was initiated by addition of 10 µl of the 48-G7 antibody solution (0.090 mg). The progress of the reaction was monitored with a Hitachi Model 3200 double beam spectrophotometer (to screen out the rate of solvent-induced background hydrolysis) at 400 nm. The extinction coefficient for the product, p-nitrophenol, was 18,300 M^-1 cm^-1 at pH 8.5.

Test [2] has the same test system. As to the kind of experiment: 48-G7 antibody-catalyzed hydrolysis of p-nitrophenylcarbonate in AOT/iso-octane microemulsion, inhibition by transition state analog. Particulars: 24 µM final concentration of inhibitor; 50 mM AOT in iso-octane, 888 µM p-NPC; uninhibited rate 0.00028 Abs/minute. In kind it is biochemical. Here is the method:
The rate of 48-G7 antibody-catalyzed hydrolysis of p-NPC was determined in a 50 mM solution of sodium bi-(2-ethylhexyl) sulfosuccinate ("AOT") in iso-octane containing 888 µM of p-NPC. First 20 ml of the iso-octane solution containing 0.445 g of AOT (M.W.=445g) and 3.5 mg of p-NPC (M.W.-197g) were prepared. To this solution […] (pH 8.5) and 10 µl of the 48-G7 antibody solution were added. A microemulsion of disperse aqueous phase in the iso-octane was obtained by mixing. The hydrolysis of p-NPC and the production of p-nitrophenol was monitored at 400 nm, although an accurate conversion between 400 nm absorbance and moles of p-nitrophenol formed was not possible because the pH inside the microemulsified aqueous phase particles could not be accurately determined.
Upon addition of the 48-G7 antibody solution, the biphasic system became turbid as the antibody-containing, microemulsified aqueous phase particles formed. Subsequently, absorbance at 400 nm began to increase as p-nitrophenol was formed. The rate of 400 nm absorbance increase was 0.00028 Abs/minute.
When this experiment was repeated with the 10 µl of tris buffer containing 2.4 mM p-nitrophosphonate hapten (24 µM final concentration), the initial 400 nm absorbance was similar to the non-inhibited antibody solution. […] Instead, the 400 nm absorbance continued to decrease. […]

In the case of `O=[N+]([O-])c1ccc(P(=O)(O)O)cc1` [p-nitrophenylphosphonate], in test [1] (uninhibited rate 0.49 µmolar p-NPC per minute), the “rate of hydrolysis of p-NPC in the presence of inhibitor” value is 0.109 µM/min. Besides, in test [1] (uninhibited rate 0.0089 Abs/min), the “rate of hydrolysis of p-NPC in the presence of inhibitor (400 nm absorbance)” value was determined as 0.002 Abs units/minute. Further, the “400 nm absorbance (p-nitrophenylcarbonate hydrolysis) in the presence of inhibitor” value in test [2] was “did not rise”.
